Measured values as given in ChEMBL document CHEMBL1201862, “PubChem BioAssay data set” (2004).
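Each compound was tested at five concentrations against cells in 96-well plates for 48 hours. Abbreviation: GI50, concentration required for 50% inhibition of growth.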 Active and inactive are the calls of the source. No stated cut-off is given here; in the data, active = GI50 up to about 1.1 µM and inactive = higher.

Experiments:
Experiment in all cases: NCI anticancer screen, dose series, 48 h
[1] = tested on: A549
[2] = tested on: CCRF-CEM
[3] = tested on: HOP-62
[4] = tested on: HT-29
[5] = tested on: Hs-578T
[6] = tested on: MDA-MB-435
[7] = tested on: MOLT-4
[8] = tested on: Malme-3M
[9] = tested on: NCI-H226
[10] = tested on: NCI-H23
[11] = tested on: OVCAR-4
[12] = tested on: PC-3
[13] = tested on: SK-MEL-28
[14] = tested on: SNB-19
[15] = tested on: SR
[16] = tested on: T47D
[17] = tested on: TK-10
[18] = tested on: U-251
[19] = tested on: OVCAR-3
[20] = tested on: SF-295

Compound | GI50 [1] | GI50 [2] | GI50 [3] | GI50 [4] | GI50 [5] | GI50 [6] | GI50 [7] | GI50 [8] | GI50 [9] | GI50 [10] | GI50 [11] | GI50 [12] | GI50 [13] | GI50 [14] | GI50 [15] | GI50 [16] | GI50 [17] | GI50 [18] | GI50 [19] | GI50 [20]
O=c1[nH]cnc2c1ncn2[C@@H]1C[C@H]1CO | > 100 µM (inactive) | > 100 µM (inactive) | > 100 µM (inactive) | > 100 µM (inactive) | > 100 µM (inactive) | > 100 µM (inactive) | > 100 µM (inactive) | > 100 µM (inactive) | > 100 µM (inactive) | > 100 µM (inactive) | > 100 µM (inactive) | > 100 µM (inactive) | > 100 µM (inactive) | > 100 µM (inactive) | > 100 µM (inactive) | > 100 µM (inactive) | > 100 µM (inactive) | > 100 µM (inactive) | – | –
CCOC(=O)C(SCCO)C(C(=O)OCC)n1cnc2c(N)ncnc21 (configuration not stated) | 44.3 µM (inactive) | 1.96 µM (inactive) | 21.7 µM (inactive) | 11 µM (inactive) | 17.3 µM (inactive) | 13.6 µM (inactive) | 4.78 µM (inactive) | 9.91 µM (inactive) | 11.1 µM (inactive) | 14.8 µM (inactive) | 18.7 µM (inactive) | 6.05 µM (inactive) | 17.3 µM (inactive) | 28.5 µM (inactive) | 4.63 µM (inactive) | 11.2 µM (inactive) | 15 µM (inactive) | 7.26 µM (inactive) | 12.7 µM (inactive) | 40.2 µM (inactive)
CCc1c(Cl)nc(Cl)nc1Cl | 1.95 µM (inactive) | < 0.0121 µM (active) | 2.09 µM (inactive) | 0.121 µM (active) | 1.13 µM (inactive) | 0.0834 µM (active) | 0.0173 µM (active) | 0.0509 µM (active) | 0.0692 µM (active) | 0.321 µM (active) | 0.867 µM (active) | 0.698 µM (active) | 1.63 µM (inactive) | 1.45 µM (inactive) | 0.0188 µM (active) | 0.339 µM (active) | 1.58 µM (inactive) | 0.331 µM (active) | 0.104 µM (active) | 2.05 µM (inactive)
[O-][n+]1c2ccccc2[n+]([O-])c2ccccc21 | 38 µM (inactive) | 4.32 µM (inactive) | > 100 µM (inactive) | 86.3 µM (inactive) | > 100 µM (inactive) | > 100 µM (inactive) | 2.74 µM (inactive) | > 100 µM (inactive) | > 100 µM (inactive) | 24 µM (inactive) | > 100 µM (inactive) | > 100 µM (inactive) | > 100 µM (inactive) | 86.3 µM (inactive) | 13 µM (inactive) | 35.3 µM (inactive) | > 100 µM (inactive) | > 100 µM (inactive) | – | > 100 µM (inactive)
O=c1c2cc3c(=O)n4c(cc(-c5ccccc5)c5cc(Cl)ccc54)nc3cc2nc2cc(-c3ccccc3)c3cc(Cl)ccc3n12 | > 100 µM (inactive) | > 100 µM (inactive) | 34.9 µM (inactive) | > 100 µM (inactive) | 43.4 µM (inactive) | > 100 µM (inactive) | > 100 µM (inactive) | – | > 100 µM (inactive) | > 100 µM (inactive) | – | > 100 µM (inactive) | > 100 µM (inactive) | 45.6 µM (inactive) | > 100 µM (inactive) | > 100 µM (inactive) | > 100 µM (inactive) | 52.4 µM (inactive) | > 100 µM (inactive) | > 100 µM (inactive)
Cn1cnc([N+](=O)[O-])c1Sc1nc(N)nc2c1ncn2Cc1ccccc1 | 25.5 µM (inactive) | 13.9 µM (inactive) | 19.7 µM (inactive) | 22.5 µM (inactive) | 20.5 µM (inactive) | 21.6 µM (inactive) | – | 13.2 µM (inactive) | 23.9 µM (inactive) | 19.2 µM (inactive) | 20.8 µM (inactive) | 11.6 µM (inactive) | 20.5 µM (inactive) | 42.7 µM (inactive) | 17.9 µM (inactive) | 13.8 µM (inactive) | 15.8 µM (inactive) | 21.8 µM (inactive) | 2.29 µM (inactive) | 44.9 µM (inactive)
CC(=O)C(=NNc1ccc(-n2c(C)nc3ccc(Br)cc3c2=O)cc1)C(C)=O | > 100 µM (inactive) | > 100 µM (inactive) | 35.8 µM (inactive) | > 100 µM (inactive) | 26.7 µM (inactive) | > 100 µM (inactive) | > 100 µM (inactive) | – | 72.9 µM (inactive) | 70.8 µM (inactive) | – | 73.8 µM (inactive) | > 100 µM (inactive) | 45.6 µM (inactive) | > 100 µM (inactive) | > 100 µM (inactive) | 56.9 µM (inactive) | 58.2 µM (inactive) | > 100 µM (inactive) | 98.6 µM (inactive)
C=C1C(C2(C)C(OC(C)=O)CC(=O)OC(C)(COC(C)=O)C2CC(=O)OC)C(OC=O)C(OC(=O)C(O)C(C)CC)C2(C)C(c3ccoc3)CC(=O)C12O (configuration not stated) | 3.56 µM (inactive) | 0.65 µM (active) | 7.43 µM (inactive) | 3.42 µM (inactive) | 8.05 µM (inactive) | 6.61 µM (inactive) | > 100 µM (inactive) | – | 16.7 µM (inactive) | > 73.5 µM (inactive) | 6.28 µM (inactive) | 5.52 µM (inactive) | 10.8 µM (inactive) | – | 5.36 µM (inactive) | > 57.7 µM (inactive) | 17.4 µM (inactive) | 3.86 µM (inactive) | > 42.7 µM (inactive) | 4.32 µM (inactive)
COc1cccc(CCn2c(N)c(C(=O)O)c3ccc([N+](=O)[O-])cc3c2=O)c1 | 27.8 µM (inactive) | > 100 µM (inactive) | 37.2 µM (inactive) | 38.5 µM (inactive) | 33.2 µM (inactive) | 38.3 µM (inactive) | 54.1 µM (inactive) | 37.3 µM (inactive) | 44 µM (inactive) | 19.5 µM (inactive) | 54 µM (inactive) | 29.2 µM (inactive) | > 100 µM (inactive) | 39.1 µM (inactive) | 40.1 µM (inactive) | 29.3 µM (inactive) | – | 25.9 µM (inactive) | 29.4 µM (inactive) | 38.1 µM (inactive)
CC(=O)OC1=C(CC(C)(C)C)C(=O)c2ccccc2C1=O | – | 19.3 µM (inactive) | 35.2 µM (inactive) | 33.7 µM (inactive) | 14.5 µM (inactive) | 21.7 µM (inactive) | – | – | 19.8 µM (inactive) | 15.6 µM (inactive) | 37.8 µM (inactive) | 29.1 µM (inactive) | 42.4 µM (inactive) | 42.6 µM (inactive) | 20.5 µM (inactive) | 44.2 µM (inactive) | 68.9 µM (inactive) | 44.8 µM (inactive) | – | 22.7 µM (inactive)
c1csc(-c2cscc2-c2cccs2)c1 | 39.4 µM (inactive) | 44.1 µM (inactive) | 27.6 µM (inactive) | 91.4 µM (inactive) | 54.8 µM (inactive) | 33.4 µM (inactive) | 34.5 µM (inactive) | – | 27.1 µM (inactive) | 28.2 µM (inactive) | 46 µM (inactive) | 5.38 µM (inactive) | > 100 µM (inactive) | > 100 µM (inactive) | 27.7 µM (inactive) | > 100 µM (inactive) | 91 µM (inactive) | > 100 µM (inactive) | 17.4 µM (inactive) | 32.9 µM (inactive)
CCOC(=O)C1C(c2ccc3c(c2)OCO3)c2c(n[nH]c2O)CC1(O)OCC (configuration not stated) | > 100 µM (inactive) | > 100 µM (inactive) | > 100 µM (inactive) | > 100 µM (inactive) | > 100 µM (inactive) | > 100 µM (inactive) | > 100 µM (inactive) | > 100 µM (inactive) | – | > 100 µM (inactive) | > 100 µM (inactive) | > 100 µM (inactive) | > 100 µM (inactive) | > 10 µM (inactive) | > 100 µM (inactive) | > 100 µM (inactive) | > 100 µM (inactive) | > 100 µM (inactive) | > 100 µM (inactive) | > 100 µM (inactive)
O[C@H]1[C@H](O)[C@H](O)CN2CCC[C@@H](O)[C@H]12 | > 100 µM (inactive) | > 100 µM (inactive) | > 100 µM (inactive) | > 100 µM (inactive) | > 100 µM (inactive) | > 100 µM (inactive) | > 100 µM (inactive) | – | > 100 µM (inactive) | > 100 µM (inactive) | > 100 µM (inactive) | > 100 µM (inactive) | > 100 µM (inactive) | > 100 µM (inactive) | > 100 µM (inactive) | > 100 µM (inactive) | > 100 µM (inactive) | > 100 µM (inactive) | > 100 µM (inactive) | > 100 µM (inactive)
C=C(C)[C@H]1C2=CC(C)=C(O2)[C@@H](O)[C@H](C(=C)C)CCC2=C[C@H]1OC2=O [KALLOLIDE A] | > 100 µM (inactive) | > 100 µM (inactive) | – | – | > 100 µM (inactive) | > 100 µM (inactive) | > 100 µM (inactive) | > 100 µM (inactive) | > 100 µM (inactive) | – | > 100 µM (inactive) | > 100 µM (inactive) | > 100 µM (inactive) | > 100 µM (inactive) | 99.5 µM (inactive) | > 100 µM (inactive) | > 100 µM (inactive) | > 100 µM (inactive) | > 100 µM (inactive) | > 100 µM (inactive)
COc1cc(NC(C)=O)ccc1C(=O)N/N=C/c1ccc(Cl)cc1Cl | 48 µM (inactive) | 95.3 µM (inactive) | 29.6 µM (inactive) | > 100 µM (inactive) | 32.7 µM (inactive) | 19.6 µM (inactive) | 73.8 µM (inactive) | 57.1 µM (inactive) | 77.1 µM (inactive) | 71.9 µM (inactive) | 23.2 µM (inactive) | 34.8 µM (inactive) | 59.4 µM (inactive) | 42.8 µM (inactive) | 18.2 µM (inactive) | 16.3 µM (inactive) | – | – | 52.8 µM (inactive) | 57 µM (inactive)
